Test results: patent US6660255B1, “Inhibition of gene transcription by polyamide DNA-binding ligands” (California Institute of Technology, priority 1997, dated 2003)

Key:
[1] = test system: HIV-1 promoter (LEF-1-activated transcription); test: HIV-1 transcription in vitro, H9 cell extract supplemented with HeLa nuclear extract; type: biochemical; settings: mismatch polyamide
From the text: Based on the-results described above, it was expected that polyamide inhibition of LEF-1 binding would inhibit LEF-1-dependent transcription in an appropriate in vitro assay system. […] The H9 cell extract was supplemented with the HeLa cell-derived nuclear extract in order to obtain high levels of transcription. The H9 cell extract stimulates HIV-1 transcription ˜2.5 to 3-fold over the level of transcription observed with the HeLa extract alone and immunodepletion of LEF-1 protein from the H9 extract abolishes this activated transcription.
The effects of polyamides 1 and 2 on HIV-1 transcription were tested in an in vitro transcription assay with a HeLa cell nuclear extract (FIG. 21A). The effects of the polyamides on basal transcription by RNA polymerase II was monitored with a nuclear extract prepared from HeLa cells (J. D. Dignam, P. L. Martin, B. S. Shastry, R. G. Roeder, Describe eukaryotic gene transcription with purified components Meth. Enzymol. 101, 582 (1983)). […] Whole cell extracts of H9 cells in log phase growth were prepared by hypotonic lysis and contained 20 mg/ml protein, as determined by the Bradford reaction. […]
The effects of polyamides 3 and 4 on HIV-1 transcription in an in vitro system consisting of a cell-free extract prepared from cultured human lymphoid H9 cells supplemented with HeLa cell extract were determined. […]

[2] = test system: 5′-WGCWGCW-3′ sequences adjacent to the HIV-1 TATA element; test: DNase I footprint titration at sites flanking the HIV-1 TATA element; type: binding
Method: The recognition sites for polyamide HIV-1 are of the form 5′-WGCWGCW-3″ (where W=A or T).
White, S., Baird, E. E. & Dervan, P. B. describes the pairing rules for recognition in the minor groove of DNA by pyrrole-imidazole polyamides. […] Labeled DNA was incubated with polyamide (45 minutes) and digested with DNase I under single-hit conditions.
(§1) Regions of polyamide protection were determined by analysis of the digestion products on a 6% denaturing polyacrylamide sequencing gel. Storage phosphorimage analysis of the data was used to obtain dissociation constants for the binding reactions (using Kodak Storage Phosphor Screens and a Molecular Dynamics SF PhosphorImager). Recombinant human TBP (rhTBP) was obtained from Promega and was used in footprinting and gel mobility shift experiments as recommended. The reaction mixtures also contained 100 ng of poly dG-poly dC per 10 μL gel shift reaction or 50 μL footprinting reaction. For gel mobility shift assays, 6% polyacrylamide gels (20:1, acrylamide to bisacrylamide) contained 44 mM Tris-borate, pH 8.3, 1 mM EDTA, […] and 0.02% (v/v) NP-40. The same buffer was used for electrophoresis of 1 mm thick gels at 15 volts/cm for 2 hours at 4° C.

[3] = test system: rhTBP binding to the HIV-1 TATA element; test: DNase I footprinting, inhibition of TBP binding to HIV-1 LTR fragment; design: species or system human
Method: as §1

wild-type HIV-1 promoter = test: HIV-1 transcription in vitro with lymphoid cell nuclear extract; type: biochemical; settings: read-out: polyamide concentration for fifty percent inhibition of HIV-1 transcription
Method: The recognition sites for polyamide HIV-1 are of the form 5′-WGCWGCW-3″ (where W=A or T). Since a pyrrole-pyrrole pair can recognize either an A-T base pair or a T-A base pair, polyamide HIV-1 will recognize both the 5′ and 3′ flanking sequences of the HIV-1 TATA element. […] This concentration corresponds to only a 16-fold excess of polyamide over specific binding sites in the HIV-1 plasmid DNA (3 nM).

Ets-1 ΔN331/DNA complex = test: Gel mobility shift, Ets-1 binding to HIV-1 enhancer oligonucleotide

SMILES: CN(C)CCCNC(=O)CCNC(=O)c1cc(NC(=O)c2nc(NC(=O)CCNC(=O)c3cc(NC(=O)c4nc(NC(=O)CCCNC(=O)c5cc(NC(=O)c6nc(NC(=O)CCNC(=O)c7cc(NC(=O)c8nccn8C)cn7C)cn6C)cn5C)cn4C)cn3C)cn2C)cn1C [polyamide 4, ImPy-β-ImPy-γ-ImPy-β-ImPy-β-Dp]
- inhibition of HIV-1 transcription [1]: fails to inhibit
- Ka ([2]; HIV-1 TATA box region): 2e+10 M⁻¹
- fold reduced affinity relative to the match polyamide ([2]; mismatch control polyamide): 100 fold
- Kd ([2]; sites flanking the TATA element, 5′-AGCTGCA-3′ / 5′-TGCTGCA-3′, read-out: apparent/equilibrium dissociation constant (Kd)): 0.05 nM
- inhibition of TBP binding to the HIV-1 TATA element ([3]; DNase I footprinting, 2.5-10 nM polyamide): inhibited
- polyamide concentration at which TBP binding is inhibited ([3]; five-fold excess of polyamide over DNA binding sites): 2.5 nM
- IC50 (wild-type HIV-1 promoter): ~50 nM
- effect on Ets-1 DNA-binding / complex formation (Ets-1 ΔN331/DNA complex; polyamide preincubated with oligonucleotide, 100-400 nM): did not prevent
- effect on complex formation in the same concentration range (Ets-1 ΔN331/DNA complex; titration, mismatch polyamide): virtually no effect
